Test [1] deals with Male C57BL/6 mice aged 2 mo, 12 mo or 19 mo. The test is described as follows: Thymus cellularity in mice aged 2, 12 or 19 months. Type of test: in vivo, mouse. Conditions: TC-G 1008 20 mg/kg/day for 5 days, day 7, versus untreated controls. How it is done:
FIG. 14. Male C57BL/6 mice aged 2 mo, 12 mo or 19 mo were given the GPR39 agonist TC-G 1008 (20 mg/kg/day) for 5 days. Thymus cellularity was measured at day 7.

Test [2] relates to mice given lethal TBI and T cell depleted BM (allo-HCT). The experiment in a line: Thymic reconstitution after T cell-depleted allogeneic HCT. It counts as in vivo. As to conditions: BALB.B recipients, 900 cGy, TC-G 1008 20 mg/mouse/day day 0-8, 10 and 12, day 14.
Test [3] concerns C57BL/6 mice given sublethal TBI. The test is described as follows: Thymic regeneration after sublethal total body irradiation (SL-TBI, 550 cGy). Type of test: in vivo, mouse. Conditions: TC-G 1008 20 mg/mouse/day by guided feeding day 0 to day 10, 550 cGy TBI, day 10. The source says: FIGS. 4A-4G. […] (4A, 4B) 6-8 week-old female C57BL/6 mice were fed a normal or ZD diet for 21 days at which point mice were given a sublethal dose of total body irradiation (TBI, 550 cGy). (4A) Total thymic cellularity at days 7 and 14 after TBI (n=10/treatment/timepoint across two independent experiments). (4B) Total number of CD45-EpCAM^+MHCII^+UEA1^loLy51^hi (cTECs) and CD45^− EpCAM^+MHCII^+UEA1^hi Ly51^lo (mTECs) at days 7 and 14 after TBI (n=10/treatment/timepoint across two independent experiments). (4C) 6-12 week-old female BALB.B mice were fed with normal or ZD diet for 21 days, at which point mice were given a lethal dose of TBI (900cGy) and 10×10^6 T cell-depleted bone marrow (BM) cells from 6-8 week-old C57BL/6. One cohort also received 2×10^6 T cells to induce graft versus host disease (GVHD); thymic cellularity was quantified on day 14 after allogeneic hematopoietic stem cell transplant (allo-HCT, n=5-6/group). (4D) 6-8 week-old female C57BL/6 mice were fed with normal or ZD diet for 21 days at which point mice were given 550 cGy TBI and total thymus cellularity quantified on day 14. […] (4E) Total thymic cellularity. (4F) Total number of cTECs and mTECs. (4G) Total number of Ki-67+ thymic endothelial cells (TECs). […]

A further test has as its target T1, GPR39 (Mus musculus, UniProt Q5U431).
T1 construct: endogenous in cells; host or cells: thymic endothelial cells (ECs / exECs)
T1 sequence (Q5U431 1-456): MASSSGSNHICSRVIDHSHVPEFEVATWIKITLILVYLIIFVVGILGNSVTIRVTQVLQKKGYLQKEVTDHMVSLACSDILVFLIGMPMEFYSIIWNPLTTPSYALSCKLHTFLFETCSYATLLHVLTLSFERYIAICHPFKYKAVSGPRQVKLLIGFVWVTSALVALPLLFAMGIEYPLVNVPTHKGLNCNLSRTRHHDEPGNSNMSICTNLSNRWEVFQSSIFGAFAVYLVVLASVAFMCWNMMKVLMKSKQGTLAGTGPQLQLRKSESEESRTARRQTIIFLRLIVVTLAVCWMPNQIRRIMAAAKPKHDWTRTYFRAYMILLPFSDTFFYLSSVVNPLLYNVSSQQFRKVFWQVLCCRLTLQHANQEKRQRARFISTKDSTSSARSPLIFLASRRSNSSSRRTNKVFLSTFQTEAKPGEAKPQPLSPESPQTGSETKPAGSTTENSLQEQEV
The test is described as follows: Ca2+ live imaging of ECs with Fluo3-AM. Type of test: cell-based. Conditions: 20 mins post stimulation, AUC. An excerpt:
FIGS. 20A-20D. […] (20D) GPR39 cell surface levels in thymocytes and TECs at d0. Graphs represent mean+/−SEM.

The test system of another test is Bmp4 in exECs. The experiment in a line: Bmp4 expression by qPCR in exECs. It counts as cell-based, mouse. As to conditions: TC-G 1008 25 μM, 24 hours, compared with ZnSO4 100 μM.

Entries after “also recorded” stand apart in the source; their conditions may differ.

With `CNc1nc(NCc2ccc(NS(C)(=O)=O)cc2Cl)cc(-c2ccccn2)n1` [TC-G 1008, N-[3-chloro-4-[[[2-(methylamino)-6-pyridin-2-ylpyrimidin-4-yl]amino]methyl]phenyl]methanesulfonamide], the thymus cellularity result in test [1] is given as “significantly improved thymus cellularity”. Moreover, the thymic function result in test [2] is listed as “significantly improved thymic function”. For the same compound, the “thymic function (thymus cellularity)” value in test [3] is reported as “significantly improved thymic function”. The “Ca2+ influx” value on GPR39 is “incudes Ca2+ influx”. Also, the Bmp4 expression entry in the test with Bmp4 in exECs is given as “induced expression of Bmp4, greater than Zn alone; also recorded: induces expression of BMP4”.

For the origin of these results see patent publication US20230263800A1, “COMPOSITIONS AND METHODS TO PROMOTE THYMIC FUNCTION” (Fred Hutchinson Cancer Center, priority 2020, published 2023).
